Data taken from patent US9789096B2, “Methods and compositions for selective and targeted cancer therapy” (Board of Regents of the University of Texas System, priority 2013, dated 2017).
Where two headings read alike, the source gives them in different places.

How the values were obtained:
Format in all cases: cell-based, human
[1] = test system: H2122; assay: Cell viability dose-response, H2122; settings: for AC50: NCI-H2122, Table 8, 12-point dose-response starting at 50 micromolar
How it was run: (§1)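 Cells plated at 15% confluence in RPMI-1640 with 5% FBS and 2 mM L-glutamine, treated with compound in a 12-point, 3-fold dilution series from 50 micromolar, in duplicate. ATP measured by Cell Titer Glo after 4 days; IC50 taken from the dose-response curve.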

[2] = test system: H1819; assay: Cell viability dose-response, H1819; settings: for AC50: NCI-H1819, Table 8, 12-point dose-response starting at 50 micromolar
How it was run: as §1

[3] = test system: H2073; assay: Cell viability dose-response, H2073; settings: for AC50: NCI-H2073, Table 8, 12-point dose-response starting at 50 micromolar
Experimental: FIG. 6A. […] Cell viability is plotted vs. compound concentration. Compound was added to cells plated at 15% confluence in 96-well plates in RPMI-1640 media supplemented with 5% Fetal Bovine Serum and 2 mM L-Glutamine. After 4 days of incubation, ATP levels were measured using Cell Titer Glo (Promega). Data are presented as the average of 2 replicates ±SEM.
Selectivity may be measured by the half maximal inhibitory concentration (IC50), which, as used herein, is a measure of the effectiveness of a compound in killing cells. This quantitative measure indicates how much of a particular compound is needed to kill a particular cell population by half (e.g., as indicated by the amount of ATP). […] The IC50 can be determined by constructing a dose-response curve. The lower the IC50, the higher the potency, and the greater the difference between IC50 values for different cell lines (e.g., sensitive lines vs. insensitive lines, and sensitive lines vs. normal lines) the greater the selectivity. […]
With this information, we synthesized and tested a series of small molecules derived in conception from the oxalamide and chromone scaffold including N-acyl ureas, as shown in Tables 6-8. Each compound was tested in a 12-point dose-response study starting at 50 micromolar and decreasing in 3-fold increments to sub-nanomolar concentrations, in duplicate. Additionally, one or more additional cell line was tested in the same way.

[4] = Homo sapiens, NCI-H2122, Tables 3 and 4, read-out: IC50 (uM) vs indicated non-small cell lung cancer cell line H2122
[5] = Homo sapiens, NCI-H1819, Tables 3 and 4, read-out: IC50 (uM) vs indicated non-small cell lung cancer cell line H1819
[6] = Homo sapiens, NCI-H2073, Tables 3 and 4, read-out: IC50 (uM) vs indicated non-small cell lung cancer cell line H2073
[7] = Tables 3 and 4, read-out: IC50 (uM) vs indicated non-small cell lung cancer cell line H2122
[8] = Tables 3 and 4, read-out: IC50 (uM) vs indicated non-small cell lung cancer cell line H2073
[9] = Homo sapiens, NCI-H2122, 12-point dose-response starting at 50 micromolar, 3-fold increments, in duplicate, read-out: toxicity data, H2122
[10] = Homo sapiens, NCI-H2073, 12-point dose-response starting at 50 micromolar, 3-fold increments, in duplicate, read-out: toxicity data, H2073

Row | Structure (SMILES) | IC50 [1, 4] [µM] | IC50 [2, 5] [µM] | IC50 [3, 6] [µM] | AC50 ([1]; Homo sapiens) [µM] | AC50 ([2]; Homo sapiens) [µM] | AC50 ([3]; Homo sapiens) [µM] | also measured
1 | NC(=O)c1ccc(C(=O)Nc2nc3ccccc3s2)cc1 [SW209411-1] | ≥ 49.5 | 3.1 | 27.8 |  |  |  | 
2 | COC(=O)c1ccc(C(=O)Nc2nc3ccc(N)cc3s2)cc1 [SW001296-3] |  | 28.6 |  |  |  |  | IC50 [1, 7]: 18.5 µM; IC50 [3, 8]: 49.5 µM
3 | C#CCOc1ccc(C(=O)c2ccc(NC(=O)C(=O)NCCc3ccccc3)cc2)cc1 [SW211560-1] |  |  |  |  |  |  | IC50 [1, 9]: ≥ 49.5 µM; IC50 ([2]; Homo sapiens, NCI-H1819, 12-point dose-response starting at 50 micromolar, 3-fold increments, in duplicate, read-out: toxicity data, H1819): ≥ 49.5 µM; IC50 [3, 10]: 22.7 µM
4 | COc1ccc(CCNC(=O)C(=O)Nc2ccc(COc3ccc(Br)cc3)cc2)cc1 [SW209050-1] |  |  |  |  |  |  | IC50 [1, 9]: 0.031 µM; IC50 [3, 10]: 25.9 µM
5 | O=C(c1ccccc1)c1ccc(/C(=N/c2nc3ccc(OCc4ccc(Cl)cc4)cc3s2)OCc2ccc(Cl)cc2)cc1 [SW211559-1] | 0.086 | 0.9 | 0.165 |  |  |  | 
6 | COC(=O)c1ccc(C(=O)Nc2nc3ccccc3s2)cc1 [SW209414-1] | ≥ 49.5 | ≥ 49.5 | 49.5 |  |  |  | 
7 | O=C1/C(=C/c2ccc(F)cc2)COc2cc(OCc3cnn(-c4ccccc4)c3)ccc21 [SW209194-1] |  |  |  | 0.876 | 49.5 | 49.5 | 
8 | COc1ccc(CCNC(=O)C(=O)Nc2ccc(OCc3ccc(Br)cc3)cc2)cc1 [SW209048-1] |  |  |  |  |  |  | IC50 [1, 9]: 0.157 µM; IC50 [3, 10]: ≥ 49.5 µM
9 | O=C1/C(=C/c2ccc(C(F)(F)F)cc2)COc2cc(OCc3cnn(-c4ccccc4)c3)ccc21 [SW209198-1] |  |  |  | 1.44 | 49.5 | 49.5 | 
10 | O=C(CCc1ccc(Br)cc1)Cn1ccnc1 [SW209201-1] |  |  |  | ≥ 49.5 | 49.5 | 49.5 | 
11 | O=C(Nc1nc2ccccc2s1)c1cccc([N+](=O)[O-])c1 [SW209205-1] | 0.397 | 0.468 | 49.5 |  |  |  | 
12 | O=C1/C(=C/c2ncc[nH]2)COc2cc(OCc3cnn(-c4ccccc4)c3)ccc21 [SW209384-1] |  |  |  | 14 | 15.5 | 9.68 | 
13 | Nc1cccc(C(=O)Nc2nc3ccccc3s2)c1 [SW209323-1] | 0.099 | 40.3 | 0.816 |  |  |  | 
14 | C#CCOC(=O)Nc1ccc(C(=O)Nc2nc3ccccc3s2)cc1 [SW209168-1] | 0.029 | 40.1 | 39.2 |  |  |  | 
15 | O=C1/C(=C/c2c[nH]cn2)COc2cc(OCc3cnn(-c4ccccc4)c3)ccc21 [SW209385-1] |  |  |  | ≥ 49.5 | 18 | 12.2 | 
16 | NCCCCCOc1cccc(CC2=CCc3cc(OCc4cnn(-c5ccccc5)c4)ccc3C2=O)c1 [SW209383-1] |  |  |  | 2.37 | 49.5 | 49.5 | 
17 | C#CCOc1ccc(C(=O)c2ccc(C(=O)Nc3nc4ccc(OC)cc4s3)cc2)cc1 [SW209049-2] |  |  |  |  |  |  | IC50 [1, 7]: 0.131 µM; IC50 ([2]; Tables 3 and 4, read-out: IC50 (uM) vs indicated non-small cell lung cancer cell line H1819): 21 µM; IC50 [3, 8]: 18 µM
18 | O=c1c(Cc2ccsc2)coc2cc(OCc3cnn(-c4ccccc4)c3)ccc12 [SW209379-1] |  |  |  | 0.082 | 49.5 | 0.087 | 
19 | O=C(c1ccccc1)c1ccc(NC(=O)c2nc3ccccc3s2)cc1 [SW209091-1] | 0.01 | 9.03 | 24 |  |  |  | 
20 | OC(CCc1ccc(Br)cc1)Cn1ccnc1 (stereo not shown) [SW 209089-1] |  |  |  | ≥ 49.5 | 49.5 | 49.5 | 
21 | Cc1ccccc1/C=C1\COc2cc(OCc3cnn(-c4ccccc4)c3)ccc2C1=O [SW209200-1] |  |  |  | 0.874 | 49.5 | 49.5 | 
22 | C#CCNC(=O)c1ccc(C(=O)Nc2nc3ccccc3s2)cc1 [SW209082-1] | 0.1 | 45.5 | 45.5 |  |  |  | 
